“Also recorded” adds a separate entry of the source.
Legend:
T. fuscum antennae = test: Electroantennogram (EAG) antennal stimulation; parameters: species or system Tetropium fuscum; conditions: EAG puffs ca. 30 ng source concentration
Protocol: (§1) Extracts ([…] in hexane) and synthetics (30 ng fuscumol) were tested for antennal stimulation of T. fuscum and T. cinnamopterum males and females using an electroantennogram (EAG) system and EAG/GC-EAD signal recording (IDAC-232) and analysis software v.2.6 (SYNTECH, The Netherlands). Antennae from males and females were excised close to the head and used intact with SPECTRA-60™ gel (electrode gel) (Parker, USA) for electrical contact.
(§2) Extracts (ca.1 male equivalent in hexane) and synthetics (30 ng fuscumol) were tested for antennal stimulation of T. fuscum and T. cinnamopterum males and females using an electroantennogram (EAG) system and EAG/GC-EAD signal recording (IDAC-232) and analysis software v.2.6 (SYNTECH, The Netherlands). Antennae from males and females were excised close to the head and used intact with Spectra©-60 gel (Parker, USA) for electrical contact.

[1] = test system: T. cinnamopterum antennae; test: Electroantennogram (EAG) antennal stimulation; parameters: species or system Tetropium cinnamopterum; conditions: EAG puffs ca. 30 ng source concentration
Protocol: as §1, §2

T. fuscum [2] = test: Field trapping, Colossus traps, McNabs Island, Halifax, 2006; format: in vivo, Tetropium fuscum; conditions: female and male T. fuscum; compared with host volatiles alone or unbaited traps; 8-week trapping
Text: (§3) FIG. 3. Mean number (+SE) of male and female T. fuscum (a) and T. cinnamopterum (b) captured in COLOSSUS TRAPS™ (insect traps) baited with synthetic pheromone candidate (P), host volatile lures (HV), P plus host volatiles (P+HV), or un-baited traps, over the entire 8-week trapping period. […] Data for T. fuscum males and females and T. cinnamopterum females were transformed by log (y+1); data for the catch of T. cinnamopterum males were transformed by square root.
(§4) The synthetic pheromone, alone and in combination with host volatile attractants, was tested in a field experiment on McNabs Island, Halifax, Nova Scotia, from 5 Jul. to 29 Aug. 2006, using COLOSSUS TRAPS™ (insect traps) (PheroTech Inc. Delta, British Columbia) (Sweeney et al. 2006)^4. Unbaited traps and traps baited with host volatiles alone served as controls, for a total of four treatments. Treatments were replicated 15 times in a randomized complete block design with 30 m between traps and blocks. Each trap was suspended from a rope tied between two conifers separated by at least 2 m, with the collecting bucket 10-20 cm above the ground. […] Pheromone was dispensed at ca. initially 800 μg/d dropping to 50 μg/d over a 4 week period (determined by weight loss at 23° C.) from a polymerase chain reaction (PCR) sample tube (Axygen Scientific Inc., CA) (0.2-mL thick) with a 1 mm diam. hole drilled in the cap. […]

T. cinnamopterum = test: as above; format: in vivo, Tetropium cinnamopterum
Text: as §3, §4

T. castaneum [3] = test: Field trapping of fuscumol enantiomers, APT Intercept traps, Bialowieza, Poland, 2007; format: in vivo, Tetropium castaneum; conditions: in the presence of host volatiles and ethanol
Text: (§5) FIG. 4. Mean catch of a. Tetropium fuscum and b. T. castaneum in APT INTERCEPT TRAPS™ (insect traps) baited with synthetic fuscumol (pure S—, pure R—, or racemic) alone and combined with host volatile lures (SB=spruce blend, a blend of monoterpenes in an ultra high release rate (UHR) lure; E=ethanol in an UHR lure) in Bialowieza, Poland in 2007.
Trapping experiments were run in 2007 in Halifax, NS, and Bialowieża, Poland to test the response of Tetropium species to fuscumol, a sex pheromone emitted by male Tetropium fuscum (F.) and male T. cinnamopterum. […] Male T. fuscum emit primarily S-fuscumol so we hypothesized that a synthetic lure of pure S-fuscumol would be more attractive than pure R-fuscumol, and possibly more attractive than racemic fuscumol, especially if R-fuscumol was the major pheromone component of a sympatric sibling species such as T. castaneum. The ultimate objective was to determine if we could improve the efficacy of the lure for use in applications for survey and control of T. fuscum. Conducting the experiment in Poland allowed us to test the response of a different population of T. fuscum from that in Halifax and also to determine the attraction of the pheromone lures to another potentially invasive species, T. castaneum. […]

T. castaneum [4] = test: Trapping with low, medium or high release of racemic fuscumol or fuscumate plus SB and E lures (FIG. 13); format: in vivo, Tetropium castaneum; conditions: added to spruce volatile (SB) and ethanol (E) lures
Protocol: FIG. 13 Mean catch of T. castaneum in traps baited with low (1 mg/d), medium (4 mg/d) or high (32 mg/d) of racemic fuscumol plus spruce volatile (SB) and ethanol (E) lures.

T. fuscum [5] = test: Field trapping of fuscumol enantiomers, APT Intercept traps, Bialowieza, Poland, 2007; format: in vivo, Tetropium fuscum
Text: as §5
Trapping experiments were run in 2007 in Halifax, NS, and Bialowieża, Poland to test the response of Tetropium species to fuscumol, a sex pheromone emitted by male Tetropium fuscum (F.) and male T. cinnamopterum. […] Male T. fuscum emit primarily S-fuscumol so we hypothesized that a synthetic lure of pure S-fuscumol would be more attractive than pure R-fuscumol, and possibly more attractive than racemic fuscumol, especially if R-fuscumol was the major pheromone component of a sympatric sibling species such as T. castaneum. The ultimate objective was to determine if we could improve the efficacy of the lure for use in applications for survey and control of T. fuscum. Conducting the experiment in Poland allowed us to test the response of a different population of T. fuscum from that in Halifax and also to determine the attraction of the pheromone lures to another potentially invasive species, T. castaneum.
There were eight different lure treatments: S-fuscumol; R-fuscumol; racemic fuscumol; S-fuscumol+UHR (ultra high release rate) spruce blend lure+UHR ethanol lure; R-fuscumol+UHR spruce blend lure+UHR ethanol lure; racemic fuscumol+UHR spruce blend lure+UHR ethanol lure; UHR spruce blend lure+UHR ethanol lure; and unbaited controls.
On McNabs Island near Halifax, NS, COLOSSUS TRAPS™ (insect traps) were used with 15 replicates per treatment and in Bialowieża, APT (Advanced Pheromone Technologies) INTERCEPT TRAPS™ (insect traps) were used with 9 replicates per treatment. The treatments were laid out in randomized complete block designs with 30 m spacing between traps. Traps were out from 15 May to 27 Jun. 2007 on McNabs Island and from 30 Apr. to 25 Jun. 2007 in Bialowieża. […]

T. fuscum [6] = test: Trapping with low, medium or high release of racemic fuscumol or fuscumate plus SB and E lures (FIG. 14); format: in vivo, Tetropium fuscum; conditions: added to spruce volatile (SB) and ethanol (E) lures
Protocol: FIG. 14 Mean catch of T. fuscum in traps baited with low (1 mg/d), medium (4 mg/d) or high (32 mg/d) of racemic fuscumol plus spruce volatile (SB) and ethanol (E) lures.

CC(C)=CCC/C(C)=C/CCC(C)O (racemic) [racemic fuscumol, (E)-6,10-dimethyl-5,9-undecadien-2-ol]
antennal response in females relative to males (T. fuscum antennae): 2-3 times | antennal response (EAG) (T. fuscum antennae; females, n=5): 6.05 ± 0.3 mV | antennal response in females relative to males [1]: 2-3 times | antennal response (EAG) ([1]; females, n=5): 1.7 ± 0.2 mV | trap catch compared among lure treatments (T. fuscum [2]): did not differ from that in unbaited traps | trap catch compared with unbaited traps (T. cinnamopterum; T. cinnamopterum, fuscumol alone): did not differ from that in unbaited traps | response of male T. cinnamopterum (T. cinnamopterum; males): Lack of response | attraction of T. castaneum (T. castaneum [3]): attracted | catch compared to SB+E (T. castaneum [4]): significantly increased catch

CC(C)=CCC/C(C)=C/CC[C@@H](C)O [R-fuscumol]
attraction of T. fuscum to S-fuscumol in the presence of R-fuscumol (T. fuscum [5]; racemic versus S-fuscumol): not reduced

CC(C)=CCC/C(C)=C/CC[C@H](C)O [S-fuscumol, (2S, 5E)-6,10-dimethyl-5,9-undecadien-2-ol]
attractiveness compared with R-fuscumol or an unbaited trap (T. fuscum [5]; without host volatile lures): significantly more attractive | mean catch compared with racemic fuscumol (T. fuscum [5]; without host volatile lures): did not differ significantly | attraction of T. castaneum (T. castaneum [3]): attracted

CC(=O)OC/C=C(\C)CCC=C(C)C [fuscumate, geranyl acetate]
catch compared to SB+E (T. castaneum [4]): did not boost catch; also recorded: no effect on attraction | catch compared to SB+E (T. fuscum [6]): did not boost catch; also recorded: no effect on attraction

Source: patent US8029814B2, “Male produced pheromone in Tetropium fuscum (F.) and Tetropium cinnamopterum (kirby) (coleoptera: cerambycidae)” (Her Majesty the Queen in Right of Canada as represented by …, priority 2007, dated 2011)
